*1 amine or outer side, *2 acyl side, *3 side chain or, on linkers, in order; H or OH if unused. Where a SMILES comes first, the peptide text is derived from it. Bridges are numbered along the chain shown (N, C = ends). [ ]: non-standard residue; d: D form. The star is where a group is joined. ξ: configuration not given here. NMeHph(3-OMe-4-CONHMe) = CNC(=O)c1ccc(CC[C@H](NC)C(=O)O)cc1OC; X19 = CC(C)C[C@H](NN(C)[C@H](Cc1ccccc1)N(C)[*:1])C(=O)[*:2]; Phe(3-OMe,4-CONHMe) = CNC(=O)c1ccc(C[C@H](N)C(=O)O)cc1OC; X10 = CN([C@@H](CCN1CCC(F)(F)CC1)C(=O)[*:2])[*:1]; Phe(4-CF3) = N[C@@H](Cc1ccc(C(F)(F)F)cc1)C(=O)O; Phe(4-COOH) = N[C@@H](Cc1ccc(C(=O)O)cc1)C(=O)O; NMePhe(3-Cl) = CN[C@@H](Cc1cccc(Cl)c1)C(=O)O; X12 = O=C([C@H](CCCC(O)C(F)(F)F)N[*:1])[*:2]; Tyr(3-F) = N[C@@H](Cc1ccc(O)c(F)c1)C(=O)O; Tyr(3-OMe) = COc1cc(C[C@H](N)C(=O)O)ccc1O; NMeW = CN[C@@H](Cc1c[nH]c2ccccc12)C(=O)O; NMehPhe = CN[C@@H](CCc1ccccc1)C(=O)O; X6 = O=C([C@H](CCCCO)N[*:1])[*:2]; NMeF = CN[C@@H](Cc1ccccc1)C(=O)O; NMeGABA = CN(CCCC(=O)[*:2])[*:1]; NMeI = CC[C@H](C)[C@H](NC)C(=O)O; NMeL = CN[C@@H](CC(C)C)C(=O)O; Butyl(3R-OH) = C[C@@H](O)CC*; Propyl(2R-OH) = C[C@@H](O)C*; NMeV = CN[C@H](C(=O)O)C(C)C; NMeAbu = CC[C@H](NC)C(=O)O; ξNMeL = CNC(CC(C)C)C(=O)O; NMeA = CN[C@@H](C)C(=O)O; Piperidide = C1CCN(*)CC1; CH2CMe2OH = CC(C)(O)C*; CH2CONHMe = CNC(=O)C*; NBuGly = CCCCNCC(=O)O; NPrGly = CCCNCC(=O)O; Ethyl(2-OH) = OCC*; N(OH)Me = CN(O)*; Sar = CNCC(=O)O; tBu = CC(C)(C)*
Assay: in vitro
Conditions: human, Caco-2, Caco-2

Structure (SMILES) | Papp [×10⁻⁶ cm/s]
CCCCN1CC(=O)N(C)[C@@H](CC(C)C)C(=O)N[C@@H](CC(C)C)C(=O)N(C)[C@@H](Cc2ccccc2)C(=O)N(C)[C@@H](C)C(=O)N[C@H](C(=O)N2CCCCC2)CC(=O)N[C@H](C(C)C)C(=O)N(C)[C@@H](Cc2ccccc2)C(=O)N[C@@H](CC(C)C)C(=O)N(C)[C@@H](CCN2CCC(F)(F)CC2)C(=O)N[C@@H]([C@@H](C)O)C1=O [pd394] ([dV][NMeF]L[X10]T[NBuGly][NMeL]L[NMeF][NMeA]D-Piperidide; lactam N-11) | 1.8

Same assay, conditions: human, Caco-2, Caco-2 (cm/sec)

Structure (SMILES) | Papp [×10⁻⁶ cm/s]
CC(C)C[C@@H]1NN(C)[C@H](Cc2ccccc2)N(C)C(=O)[C@@H](C(C)C)NC(=O)C[C@@H](C(=O)N2CCCCC2)NC(=O)[C@H](CC(C)C)N(C)C(=O)[C@H](CC(C)C)N(C)C(=O)[C@H](Cc2ccc(O)cc2)NC(=O)[C@H](CC(C)C)N(C)C(=O)CN(C)C(=O)[C@H]([C@@H](C)O)NC(=O)[C@H](CC(C)C)N(C)C1=O [Compound F01] ([dV][X19][NMeL]T[Sar][NMeL]Y[NMeL][NMeL]D-Piperidide; lactam N-10) | 0.32
CC(C)C[C@H]1C(=O)N[C@@H](COCC[C@@H](C)O)C(=O)N(C)[C@@H](Cc2ccccc2)C(=O)N(C)[C@@H](Cc2cccc(Cl)c2)C(=O)N[C@@H](COC(C)(C)C)C(=O)N(C)[C@@H](CC(C)C)C(=O)N[C@@H]([C@@H](C)O)C(=O)N(C)[C@@H](CC(C)C)C(=O)N(C)[C@@H](CC(C)C)C(=O)N[C@H](C(=O)N2CCCCC2)CC(=O)N(C)CCCC(=O)N1C [AP115] ([NMeGABA][NMeL]S(Butyl(3R-OH))[NMeF][NMePhe(3-Cl)]S(tBu)[NMeL]T[NMeL][NMeL]D-Piperidide; lactam N-11) | 0.27
CCCN1CC(=O)N(C)[C@@H](CC(C)C)C(=O)N[C@H](C(=O)N2CCCCC2)CC(=O)N(C)[C@@H](C)C(=O)N[C@@H](COCCO)C(=O)N(C)[C@@H](CC(C)C)C(=O)N(C)[C@@H](Cc2cccc(Cl)c2)C(=O)N[C@@H](CC(C)C)C(=O)N(C)[C@@H](CCc2ccccc2)C(=O)N(C)[C@@H](CC(C)C)C(=O)N[C@@H]([C@@H](C)O)C1=O [Compound A05] ([NMeA]S(Ethyl(2-OH))[NMeL][NMePhe(3-Cl)]L[NMehPhe][NMeL]T[NPrGly][NMeL]D-Piperidide; lactam N-11) | 0.9
CCCCN1CC(=O)N(C)[C@@H](CC(C)C)C(=O)N[C@@H](COC[C@@H](C)O)C(=O)N(C)[C@@H](Cc2cccc(Cl)c2)C(=O)N(C)[C@@H](C(C)C)C(=O)N[C@H](C(=O)N2CCCCC2)CC(=O)N[C@H](C(C)C)C(=O)N(C)[C@@H](Cc2ccccc2)C(=O)N[C@@H](CC(C)C)C(=O)N(C)[C@@H](CC(C)C)C(=O)N[C@@H]([C@@H](C)O)C1=O [AP80] ([dV][NMeF]L[NMeL]T[NBuGly][NMeL]S(Propyl(2R-OH))[NMePhe(3-Cl)][NMeV]D-Piperidide; lactam N-11) | 0.36
CC[C@H](C)[C@@H]1NC(=O)[C@H](CC(C)C)N(C)C(=O)CN(C)C(=O)C[C@@H](C(=O)N2CCCCC2)NC(=O)[C@H](CC(C)C)N(C)C(=O)[C@H](Cc2ccc(C(=O)NC)c(OC)c2)NC(=O)[C@H](CC(C)C)N(C)C(=O)[C@H](Cc2cccc(Cl)c2)N(C)C(=O)CN(C)C(=O)[C@H]([C@@H](C)O)NC(=O)[C@H](CC(C)C)N(C)C1=O [AP34] ([Sar][NMeL]I[NMeL]T[Sar][NMePhe(3-Cl)][NMeL][Phe(3-OMe,4-CONHMe)][NMeL]D-Piperidide; lactam N-11) | 0.2
CC(C)C[C@@H]1NC(=O)[C@H](Cc2ccccc2)N(C)C(=O)[C@@H](C(C)C)NC(=O)C[C@@H](C(=O)N2CCCCC2)NC(=O)[C@H](CC(C)C)N(C)C(=O)[C@H](CC(C)C)N(C)C(=O)[C@H](Cc2ccc(O)c(F)c2)NC(=O)[C@H](CC(C)C)N(C)C(=O)CN(C)C(=O)[C@H]([C@@H](C)O)NC(=O)[C@H](CC(C)C)N(C)C1=O [pd128] ([dV][NMeF]L[NMeL]T[Sar][NMeL][Tyr(3-F)][NMeL][NMeL]D-Piperidide; lactam N-11) | 0.17
CC[C@H](C)[C@@H]1NC(=O)[C@H](CC(C)C)N(C)C(=O)CCCN(C)C(=O)C[C@@H](C(=O)N2CCCCC2)NC(=O)[C@H](CC(C)C)N(C)C(=O)[C@H](CCc2ccc(C(=O)NC)c(OC)c2)N(C)C(=O)[C@H]([C@@H](C)O)NC(=O)[C@H](CC(C)C)N(C)C(=O)[C@H](COC(C)(C)C)NC(=O)[C@H](CC(C)C)N(C)C(=O)[C@H](Cc2ccccc2)N(C)C1=O [AP228] ([NMeGABA][NMeL]I[NMeF][NMeL]S(tBu)[NMeL]T[NMeHph(3-OMe-4-CONHMe)][NMeL]D-Piperidide; lactam N-11) | 0.84
CCCN1CC(=O)N(C)[C@@H](Cc2cccc(Cl)c2)C(=O)N(C)[C@@H](CC(C)C)C(=O)N[C@@H](COC(C)(C)C)C(=O)N(C)[C@@H](CC(C)C)C(=O)N[C@H](C(=O)N2CCCCC2)CC(=O)N(C)CC(=O)N(C)[C@@H](Cc2ccccc2)C(=O)N[C@@H](COCC(C)(C)O)C(=O)N(C)[C@@H](CC(C)C)C(=O)N[C@@H]([C@@H](C)O)C1=O [AP07] ([Sar][NMeF]S(CH2CMe2OH)[NMeL]T[NPrGly][NMePhe(3-Cl)][NMeL]S(tBu)[NMeL]D-Piperidide; lactam N-11) | 1.3
CCCCN1CC(=O)N(C)[C@@H](CC(C)C)C(=O)N[C@@H](COC(C)(C)C)C(=O)N(C)[C@@H](CC(C)C)C(=O)N(C)[C@@H](CC)C(=O)N[C@H](C(=O)N2CCCCC2)CC(=O)N[C@H](CC(C)C)C(=O)N(C)[C@@H](Cc2ccccc2)C(=O)N[C@@H](Cc2ccc(O)c(OC)c2)C(=O)N(C)[C@@H](CC(C)C)C(=O)N[C@@H]([C@@H](C)O)C1=O [Compound E02] ([dL][NMeF][Tyr(3-OMe)][NMeL]T[NBuGly][NMeL]S(tBu)[NMeL][NMeAbu]D-Piperidide; lactam N-11) | 0.31
CCCCN1CC(=O)N(C)[C@@H](CC(C)C)C(=O)N[C@@H](Cc2ccc(C(=O)N(C)O)cc2)C(=O)N(C)[C@@H](CC(C)C)C(=O)N(C)[C@@H](CC(C)C)C(=O)N[C@H](C(=O)N2CCCCC2)CC(=O)N[C@H](CC(C)C)C(=O)N(C)[C@@H](Cc2ccccc2)C(=O)N[C@@H](C(C)C)C(=O)N(C)C(CC(C)C)C(=O)N[C@@H]([C@@H](C)O)C1=O (stereo partly drawn) [AP249] ([dL][NMeF]V[ξNMeL]T[NBuGly][NMeL][Phe(4-COOH)](N(OH)Me)[NMeL][NMeL]D-Piperidide; lactam N-11) | 0.04
CCCN1CC(=O)N(C)[C@@H](CC(C)C)C(=O)N[C@H](C(=O)N2CCCCC2)CC(=O)N(C)[C@@H](C)C(=O)N[C@@H](CCCCO)C(=O)N(C)[C@@H](CC(C)C)C(=O)N(C)[C@@H](Cc2cccc(Cl)c2)C(=O)N[C@@H](C(C)C)C(=O)N(C)[C@@H](CCc2ccccc2)C(=O)N(C)[C@@H](CC(C)C)C(=O)N[C@@H]([C@@H](C)O)C1=O [Compound B05] ([NMeA][X6][NMeL][NMePhe(3-Cl)]V[NMehPhe][NMeL]T[NPrGly][NMeL]D-Piperidide; lactam N-11) | 0.26
CC(C)C[C@@H]1NC(=O)[C@H](CC(C)C)N(C)C(=O)[C@H](C)N(C)C(=O)C[C@@H](C(=O)N(C)[C@@H](Cc2ccccc2)C(=O)N[C@@H](C)C(=O)N2CCCCC2)NC(=O)[C@H]([C@@H](C)O)NC(=O)[C@H](CC(C)C)N(C)C(=O)[C@H](Cc2ccccc2)NC(=O)[C@H](Cc2ccccc2)N(C)C(=O)[C@H](CC(C)C)N(C)C1=O [pd218] ([NMeA][NMeL]L[NMeL][NMeF]F[NMeL]TD[NMeF]A-Piperidide; lactam N-9) | 1.1
CC[C@H](C)[C@H]1C(=O)N[C@@H]([C@@H](C)O)C(=O)N(C)CC(=O)N(C)[C@@H](CC(C)C)C(=O)N[C@H](C(=O)N2CCCCC2)CC(=O)N(C)[C@@H](CC(C)C)C(=O)N[C@@H](CC(C)C)C(=O)N(C)[C@@H](CC(C)C)C(=O)N(C)[C@@H](Cc2c[nH]c3ccccc23)C(=O)N[C@@H](CC(C)C)C(=O)N(C)[C@@H](Cc2ccccc2)C(=O)N1C [pd111] ([NMeL]L[NMeL][NMeW]L[NMeF][NMeI]T[Sar][NMeL]D-Piperidide; lactam N-11) | 0.16

Same assay, conditions: human, Caco-2, Caco-2 (cm/sec) Papp

Structure (SMILES) | Papp [×10⁻⁶ cm/s]
CC(C)C[C@@H]1NC(=O)[C@H](Cc2ccccc2)N(C)C(=O)C[C@@H](C(=O)N2CCCCC2)NC(=O)[C@H](CC(C)C)N(C)C(=O)CN(C)C(=O)[C@H]([C@@H](C)O)NC(=O)[C@H](Cc2ccccc2)N(C)C(=O)[C@H](Cc2ccccc2)N(C)C(=O)[C@H](CC(C)C)NC(=O)[C@H](Cc2ccccc2)N(C)C(=O)[C@H](CC(C)C)N(C)C1=O [pd227] ([NMeF]L[NMeL][NMeF]L[NMeF][NMeF]T[Sar][NMeL]D-Piperidide; lactam N-11) | 0.61

Same assay, conditions: human, Caco-2, Caco-2 (membrane permeability)

Structure (SMILES) | Papp [×10⁻⁶ cm/s]
CCCN1CC(=O)N(C)[C@@H](CC(C)C)C(=O)N[C@H](C(=O)N2CCCCC2)CC(=O)N(C)[C@@H](CC(C)C)C(=O)N[C@@H](Cc2ccc(C(F)(F)F)cc2)C(=O)N(C)[C@@H](CC(C)C)C(=O)N(C)[C@@H](CC(C)C)C(=O)N[C@@H](CCC(=O)NC)C(=O)N(C)[C@@H](Cc2ccccc2)C(=O)N(C)[C@@H]([C@@H](C)CC)C(=O)N[C@@H]([C@@H](C)O)C1=O [Compound J04] ([NMeL][Phe(4-CF3)][NMeL][NMeL]E(NHMe)[NMeF][NMeI]T[NPrGly][NMeL]D-Piperidide; lactam N-11) | 0.087
CCCCN1CC(=O)N(C)[C@@H](CC(C)C)C(=O)N[C@@H](COCC(=O)NC)C(=O)N(C)[C@@H](CCc2ccccc2)C(=O)N(C)[C@@H](CC(C)C)C(=O)N[C@H](C(=O)N2CCCCC2)CC(=O)N[C@H](CC(C)C)C(=O)N(C)[C@@H](CC(C)C)C(=O)N[C@@H](Cc2ccccc2)C(=O)N(C)[C@@H](CC(C)C)C(=O)N[C@@H]([C@@H](C)O)C1=O [Compound I02] ([dL][NMeL]F[NMeL]T[NBuGly][NMeL]S(CH2CONHMe)[NMehPhe][NMeL]D-Piperidide; lactam N-11) | 0.052
CC[C@H]1C(=O)N(C)[C@@H](Cc2ccccc2)C(=O)N[C@@H](CC(C)C)C(=O)N(C)[C@@H](Cc2ccccc2)C(=O)N(C)[C@@H](C(C)C)C(=O)N[C@@H](CCCC(O)C(F)(F)F)C(=O)N(C)CC(=O)N(C)[C@@H](CC(C)C)C(=O)N[C@H](C(=O)N2CCCCC2)CC(=O)N(C)[C@@H](C)C(=O)N[C@@H](CC(C)C)C(=O)N1C (stereo partly drawn) [Compound D14] ([NMeA]L[NMeAbu][NMeF]L[NMeF][NMeV][X12][Sar][NMeL]D-Piperidide; lactam N-11) | 0.9

Source: patent US20230096766A1, “AMINO ACID HAVING FUNCTIONAL GROUP CAPABLE OF INTERMOLECULAR HYDROGEN BONDING, PEPTIDE COMPOUND CONTAINING SAME AND METHOD FOR PRODUCTION THEREOF” (Chugai Seiyaku Kabushiki Kaisha, priority 2018, published 2023)
